In patent US20210369853A1, “TARGETED PROTEASE DEGRADATION PLATFORM” (EUBULUS BIOTHERAPEUTICS INC., priority 2018, published 2021):
pEC50: −log10 of the molar value. Read-outs that look alike come from different tables or passages of the source. Values belong to the molecule of their own block, whether it stands above or below them.

How the values were obtained:
Assay type in all cases: cell-based
Daudi [1] = assay: Cell proliferation experiment (EC50), Daudi; conditions: Homo sapiens; Daudi cells
[2] = system: Human Ovarian Cancer SK-OV-3; assay: Cell proliferation experiment (Alarm blue, 72 h, EC50); conditions: SKO3 cells
Method in brief: (§1)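 Duplicate wells per concentration, 5-fold dilution series, 72 h continuous exposure of log-phase cells; read-out Alamar blue fluorescence, EC50 derived by curve fit with minimum, maximum and slope terms.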

[3] = system: Human Monocytic Leukemia MV4-11; assay: as above; conditions: Homo sapiens
Method in brief: as §1

[4] = system: Human Glioma Cells U-87 MG; assay: as above; conditions: U-87MG cells
Method in brief: as §1

[5] = system: Human Acute Myelomonocytic Leukemia HL-60; assay: as above; conditions: HL-60 cells
Method in brief: as §1

[6] = system: Human Acute Lymphoblastic Leukemia Cells MOLT-4; assay: as above; conditions: MOL4-4 cells
Method in brief: as §1

[7] = system: Human cervical adenocarcinoma cells Hela; assay: as above
Method in brief: as §1

[8] = system: Human Colon Cancer HCT-116; assay: as above; conditions: HCT116 cells
Method in brief: as §1

[9] = system: Human Small Cell Lung Cancer NCI-H82; assay: as above; conditions: Homo sapiens, NCI-H82; NCIH82 cells
Method in brief: as §1

[10] = system: Human Monocytic Leukemia THP-1; assay: as above; conditions: THP-1 cells
Method in brief: as §1

[11] = system: Human Breast Cancer MDA-MB-231; assay: as above; conditions: MDA-MB-231 cells
Method in brief: as §1

Human Colon Cancer HT-29 = assay: as above; conditions: HT-29 cells
Method in brief: as §1

PLK1 = target: T1, PLK1 (Homo sapiens, UniProt P53350); assay: Western blot, protein degradation (DC50)
T1 construct: endogenous in cells
T1 sequence (P53350 whole entry): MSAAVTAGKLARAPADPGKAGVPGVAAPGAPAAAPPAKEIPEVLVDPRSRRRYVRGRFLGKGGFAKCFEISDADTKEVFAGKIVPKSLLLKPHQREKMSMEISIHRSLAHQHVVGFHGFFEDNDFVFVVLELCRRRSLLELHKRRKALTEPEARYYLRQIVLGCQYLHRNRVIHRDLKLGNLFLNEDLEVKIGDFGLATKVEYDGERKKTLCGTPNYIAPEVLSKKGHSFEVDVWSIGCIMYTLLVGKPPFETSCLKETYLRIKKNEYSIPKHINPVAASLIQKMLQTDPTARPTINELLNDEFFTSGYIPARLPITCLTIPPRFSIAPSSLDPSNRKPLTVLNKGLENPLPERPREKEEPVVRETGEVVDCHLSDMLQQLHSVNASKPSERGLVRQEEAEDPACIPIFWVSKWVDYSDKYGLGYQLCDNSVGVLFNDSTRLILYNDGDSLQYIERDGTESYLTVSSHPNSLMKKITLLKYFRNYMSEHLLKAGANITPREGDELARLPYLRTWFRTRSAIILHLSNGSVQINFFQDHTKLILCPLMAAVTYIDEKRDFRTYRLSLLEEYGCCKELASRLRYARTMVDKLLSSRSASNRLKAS
Method in brief: (§2)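 Cells treated with compound, lysed in RIPA and resolved by SDS-PAGE (4%-12%); PVDF blots probed with primary antibody overnight at 4° C, then secondary antibody, and developed with ECL. Band intensities quantified by densitometry to give degradation.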

BRD4 = target: T2, BRD4 (Homo sapiens, UniProt O60885); assay: Western blot, protein degradation (DC50)
T2 construct: endogenous in cells
Method in brief: as §2

PBMC [12] = assay: Cell proliferation experiment (EC50), PBMC
HUVEC [13] = assay: Cell proliferation experiment (EC50), HUVEC; conditions: Homo sapiens
A549 = assay: Cell proliferation experiment (EC50), A549; conditions: Homo sapiens; A549 cells
U937 = assay: Cell proliferation experiment (EC50), U937; conditions: Homo sapiens, U-937; U937 cells
PBMC [14] = assay: Cell proliferation experiment (EC50), PBMC; remark: listed apart in the source
HUVEC [15] = assay: Cell proliferation experiment (EC50), HUVEC; conditions: Homo sapiens; remark: listed apart in the source
HUVEC [16] = assay: Cell proliferation experiment (EC50), HUVEC
PBMC [17] = assay: Cell proliferation experiment (EC50), PBMC; remark: listed apart in the source
Daudi [18] = assay: Cell proliferation experiment (EC50), Daudi; conditions: Homo sapiens; Daudi cells; remark: listed apart in the source
[19] = 6 h, western blot, read-out: PLK1 DC50 (6 h)
[20] = 24 h, western blot, read-out: PLK1 DC50 (24 h)
[21] = 6 h, western blot, read-out: BRD4 DC50 (6 h)
[22] = 24 h, western blot, read-out: BRD4 DC50 (24 h)
[23] = 6 h, read-out: PLK1 DC50 (nM) (6 h)

Structure (SMILES): CC[C@@H]1CN(C)c2cnc(Nc3ccc(C(=O)NCCOCCOCCOCCNCCC(=O)Nc4cccc5c4CN(C4CCC(=O)NC4=O)C5=O)cc3OC)nc2N1Cc1ccc(Cl)s1 (some centres unmarked) [UB-180701]
pEC50 (Daudi [1]): 6.00 to 7.00 | pEC50 ([2]; Homo sapiens, SK-OV-3): 6.00 to 7.00 | pEC50 ([3]; MV4;11 cells): > 8.00 | pEC50 ([4]; Homo sapiens): 6.00 to 7.00 | pEC50 [5]: 6.00 to 7.00 | pEC50 [6]: 6.00 to 7.00 | pEC50 ([7]; Homo sapiens): 6.00 to 7.00 | pEC50 ([8]; Homo sapiens, HCT-116): 6.00 to 7.00 | pEC50 [9]: 6.00 to 7.00 | pEC50 [10]: 6.00 to 7.00 | pEC50 ([11]; Homo sapiens): 6.00 to 7.00 | pEC50 (Human Colon Cancer HT-29; Homo sapiens): 6.00 to 7.00 | DC50 (PLK1; [19]): 10 to 100 nM | DC50 (PLK1; [20]): < 10 nM | DC50 (BRD4; [21]): < 10 nM | DC50 (BRD4; [22]): < 10 nM | pEC50 (PBMC [12]): < 6.00 | pEC50 (HUVEC [13]): < 6.00 | pEC50 (A549): 6.00 to 7.00 | pEC50 (U937): 6.00 to 7.00

Structure (SMILES): CC[C@@H]1C(=O)N(C)c2cnc(Nc3ccc(C(=O)NC4CCN(CCNCCOCC(=O)Nc5cccc6c5CN(C5CCC(=O)NC5=O)C6=O)CC4)cc3OC)nc2N1Cc1ccc(Cl)s1 (some centres unmarked) [UB-180711]
pEC50 (Daudi [1]): 6.00 to 7.00 | pEC50 ([2]; Homo sapiens, SK-OV-3): 6.00 to 7.00 | pEC50 ([3]; MV4;11 cells): > 8.00 | pEC50 ([4]; Homo sapiens): 6.00 to 7.00 | pEC50 [5]: 6.00 to 7.00 | pEC50 [6]: 6.00 to 7.00 | pEC50 ([7]; Homo sapiens): 6.00 to 7.00 | pEC50 ([8]; Homo sapiens, HCT-116): 6.00 to 7.00 | pEC50 [9]: 6.00 to 7.00 | pEC50 [10]: 6.00 to 7.00 | pEC50 ([11]; Homo sapiens): 6.00 to 7.00 | pEC50 (Human Colon Cancer HT-29; Homo sapiens): 6.00 to 7.00 | DC50 (PLK1; [19]): 10 to 100 nM | DC50 (PLK1; [20]): < 10 nM | DC50 (BRD4; [21]): < 10 nM | DC50 (BRD4; [22]): < 10 nM | pEC50 (PBMC [12]): 6.00 to 7.00 | pEC50 (HUVEC [13]): 6.00 to 7.00 | pEC50 (A549): 6.00 to 7.00 | pEC50 (U937): 6.00 to 7.00

pEC50 ([3]; MV4-11, MV4;11 cells): 7.00 to 8.00 | DC50 (PLK1; [23]): 10 to 100 nM | DC50 (PLK1; 24 h, read-out: PLK1 DC50 (nM) (24 h)): < 10 nM | DC50 (BRD4; 6 h, read-out: BRD4 DC50 (nM) (6 h)): < 10 nM | DC50 (BRD4; 24 h, read-out: BRD4 DC50 (nM) (24 h)): < 10 nM
Structure (SMILES): CC[C@@H]1C(=O)N(C)c2cnc(Nc3ccc(C(=O)NCc4cn(CCNCCC(=O)Nc5cccc6c5CN(C5CCC(=O)NC5=O)C6=O)nn4)cc3OC)nc2N1Cc1ccc(Cl)s1 (some centres unmarked) [UB-180714]
pEC50 (PBMC [14]): 6.00 to 7.00 | pEC50 (HUVEC [15]): 6.00 to 7.00

pEC50 ([3]; MV4-11, MV4;11 cells): 7.00 to 8.00 | pEC50 [5]: < 6.00 | pEC50 ([8]; Homo sapiens, HCT-116): 6.00 to 7.00 | DC50 (PLK1; [23]): < 10 nM
Structure (SMILES): O=C1CCC(N2Cc3c(NC(=O)CNCCOCCOCCOCCNC(=O)[C@]4(Cc5cccc(Nc6nccs6)n5)CC[C@@H](Oc5cccc(Cl)c5F)CC4)cccc3C2=O)C(=O)N1 (some centres unmarked) [UB-180730]
pEC50 (PBMC [14]): < 6.00 | pEC50 (HUVEC [15]): < 6.00

pEC50 ([3]; MV4-11, MV4;11 cells): 6.00 to 7.00 | pEC50 [5]: < 6.00
Structure (SMILES): O=C1CCC(N2Cc3c(NC(=O)CCOCCOCCOCCNCCOCCNC(=O)[C@]4(Cc5cccc(Nc6nccs6)n5)CC[C@@H](Oc5cccc(Cl)c5F)CC4)cccc3C2=O)C(=O)N1 (some centres unmarked) [UB-180804]
pEC50 (HUVEC [16]; Homo sapiens): < 6.00 | pEC50 (PBMC [17]): < 6.00

pEC50 ([3]; MV4-11, MV4;11 cells): 6.00 to 7.00 | pEC50 ([8]; Homo sapiens, HCT-116): 6.00 to 7.00 | DC50 (PLK1; 6 h, read-out: PLK1 DC50 (6 h)): < 10 nM
Structure (SMILES): O=C1CCC(N2Cc3c(NC(=O)CNCCOCCN4CCN(CCNC(=O)[C@]5(Cc6cccc(Nc7nccs7)n6)CC[C@@H](Oc6cccc(Cl)c6F)CC5)CC4)cccc3C2=O)C(=O)N1 (some centres unmarked) [UB-180810]
pEC50 (HUVEC [16]; Homo sapiens): < 6.00 | pEC50 (PBMC [17]): < 6.00

Structure (SMILES): CC[C@@H]1C(=O)N(C)c2cnc(Nc3ccc(C(=O)NC4CCN(CCOCCN(CC(=O)Nc5cccc6c5CN(C5CCC(=O)NC5=O)C6=O)C(=O)OC(C)C(C)SSC[C@@H](NC(=O)CCOCCOCCOCCOCCOCCOCCNC(=O)CC[C@H](NC(=O)c5ccc(NCc6cnc7nc(N)[nH]c(=O)c7n6)cc5)C(=O)O)C(=O)O)CC4)cc3OC)nc2N1C1CCCC1 (some centres unmarked) [UB-180829]
pEC50 (HUVEC [16]): < 6.00 | pEC50 [2]: 6.00 to 7.00 | pEC50 [4]: 6.00 to 7.00 | pEC50 [7]: 6.00 to 7.00 | pEC50 [8]: 6.00 to 7.00 | pEC50 [11]: 6.00 to 7.00 | pEC50 (Human Colon Cancer HT-29): 6.00 to 7.00 | pEC50 (PBMC [17]): < 6.00

pEC50 ([3]; MV4-11, MV4;11 cells): > 8.00 | pEC50 ([4]; Homo sapiens): 6.00 to 7.00 | pEC50 [9]: 6.00 to 7.00 | pEC50 (Human Colon Cancer HT-29; Homo sapiens): 6.00 to 7.00 | pEC50 (Daudi [18]): 6.00 to 7.00 | DC50 (PLK1; 6 h, read-out: PLK1 DC50 (6 h)): 10 to 100 nM | DC50 (BRD4; 6 h, read-out: BRD4 DC50 (6 h)): 10 to 100 nM
Structure (SMILES): CC[C@@H]1C(=O)N(C)c2cnc(Nc3ccc(C(=O)NCCOCCOCCOCCOCCNCC#Cc4cccc5c4CN(C4CCC(=O)NC4=O)C5=O)cc3OC)nc2N1C1CCCC1 (some centres unmarked) [UB-180844]

pEC50 ([3]; MV4-11, MV4;11 cells): > 8.00 | pEC50 ([4]; Homo sapiens): 6.00 to 7.00 | pEC50 [9]: 6.00 to 7.00 | pEC50 (Human Colon Cancer HT-29; Homo sapiens): 6.00 to 7.00 | pEC50 (Daudi [18]): 6.00 to 7.00 | DC50 (BRD4; 6 h, read-out: BRD4 DC50 (6 h)): 10 to 100 nM
Structure (SMILES): CC[C@@H]1C(=O)N(C)c2cnc(Nc3ccc(C(=O)NCCOCCOCCOCCNCC#Cc4cccc5c4CN(C4CCC(=O)NC4=O)C5=O)cc3OC)nc2N1C1CCCC1 (some centres unmarked) [UB-180846]
